In PMC11571207, “Stereorandomized Oncocins with Preserved Ribosome Binding and Antibacterial Activity” (Journal of Medicinal Chemistry, 2024):
Converted amounts (≈) assume the structure as drawn. Read-outs that look alike come from different tables or passages of the source. Non-standard residues stand in square brackets, D forms with d. Residues, ends and D or L forms follow the SMILES beside them.

Columns and labels:
E. coli W3110 = assay: microbe, parasite or virus in culture; settings: for MIC E. coli W3110: supplement CSV
Procedure, shortened: (§1)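 Read-out was visible growth after MTT addition, the MIC being the lowest inhibitory peptide concentration. Bacteria grown to log phase in LB were exposed in MH medium to peptide from 64 μg/mL in twofold dilutions for 15-18h at 37°C.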

A. baumannii ATCC19606 = assay: microbe, parasite or virus in culture; settings: for MIC A. baumannii ATCC19606: supplement CSV
Procedure, shortened: as §1

P. aeruginosa PAO1 = assay: microbe, parasite or virus in culture; settings: for MIC P. aeruginosa PAO1: supplement CSV
Procedure, shortened: as §1

K. pneumoniae NCTC 418 = assay: microbe, parasite or virus in culture; settings: for MIC K. pneumoniae NCTC418: supplement CSV
Procedure, shortened: as §1

S. aureus COL (MRSA) = assay: microbe, parasite or virus in culture; settings: for MIC S. aureus COL (MRSA): supplement CSV
Procedure, shortened: as §1

K. pneumoniae OXA-48 = assay: microbe, parasite or virus in culture; settings: for MIC K. pneumoniae OXA-48: supplement CSV
Procedure, shortened: (§2)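 Minimal inhibitory concentrations come from broth microdilution in MH medium, with a top peptide concentration of 64 μg/mL halved serially.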

P. aeruginosa ZEM-1A = assay: microbe, parasite or virus in culture; settings: for MIC P. aeruginosa ZEM-1A: supplement CSV
Procedure, shortened: as §2

P. aeruginosa ZEM9A = assay: microbe, parasite or virus in culture; settings: for MIC P. aeruginosa ZEM9A: supplement CSV
Procedure, shortened: as §2

P. aeruginosa PA14 = assay: microbe, parasite or virus in culture; settings: for MIC P. aeruginosa PA14: supplement CSV
Procedure, shortened: as §2

[1] = tested on: P. aeruginosa PA14 2P4 (pmrB); assay: microbe, parasite or virus in culture
Procedure, shortened: as §2

E. cloacae = assay: microbe, parasite or virus in culture; settings: for MIC E. cloacae: supplement CSV
Procedure, shortened: as §2

[2] = tested on: P. aeruginosa PA14 4.18 (pmrB); settings: for MIC P. aeruginosa PA14 4.18: supplement CSV
[3] = tested on: P. aeruginosa PA14 4.13 (phoQ); settings: for MIC P. aeruginosa PA14 4.13: supplement CSV
human red blood cells = assay: Hemolysis assay, minimum hemolytic concentration
[4] = polymyxin B resistant strain, 12.5% MHB pH 7.4, 16–20 h at 37 °C
[5] = polymyxin B resistant strain, full MHB pH 7.4, 16–20 h at 37 °C

CC[C@H](C)[C@H](NC(=O)[C@@H](CCCNC(=N)N)NC(=O)[C@H](CCCNC(=N)N)NC(=O)[C@@H]1CCCN1C(=O)[C@@H]1CCCN1C(=O)[C@H](CCCNC(=N)N)NC(=O)[C@@H]1CCCN1C(=O)[C@H](CCCNC(=N)N)NC(=O)[C@@H]1CCCN1C(=O)[C@H](CC(C)C)NC(=O)[C@H](Cc1ccc(O)cc1)NC(=O)[C@@H]1CCCN1C(=O)[C@@H]1CCCN1C(=O)[C@H](CCCCN)NC(=O)[C@H](CC(=O)O)NC(=O)[C@@H](N)C(C)C)C(=O)N[C@@H](Cc1ccc(O)cc1)C(=O)N[C@@H](CC(N)=O)C(=O)N[C@H](CCCNC(=N)N)C(N)=O [Onc112, reference compound] (H-VDKPPYLPRPRPPR[dR]IYN[dR]-NH2)
MIC E. coli, 12.5% MHB (E. coli W3110; E. coli W3110, 12.5% Müller–Hinton medium, 16–20 h at 37 °C, broth microdilution): 2 µg/mL (≈ 0.837 µM)
MIC E. coli, Full MHB (E. coli W3110; E. coli W3110, full Müller–Hinton medium, 16–20 h at 37 °C, broth microdilution): 4 µg/mL (≈ 1.67 µM)
MIC E. coli W3110 (E. coli W3110; 12.5% MH pH 7.4): 2 µg/mL (≈ 0.837 µM)
MIC E. coli W3110 (E. coli W3110; full MH pH 7.4): 4 µg/mL (≈ 1.67 µM)
MIC A. baumannii, 12.5% MHB (A. baumannii ATCC19606; A. baumannii ATCC19606, 12.5% Müller–Hinton medium, 16–20 h at 37 °C): 4 µg/mL (≈ 1.67 µM)
MIC A. baumannii, Full MHB (A. baumannii ATCC19606; A. baumannii ATCC19606, full Müller–Hinton medium, 16–20 h at 37 °C): 32 µg/mL (≈ 13.4 µM)
MIC A. baumannii ATCC19606 (A. baumannii ATCC19606; 12.5% MH pH 7.4): 4 µg/mL (≈ 1.67 µM)
MIC A. baumannii ATCC19606 (A. baumannii ATCC19606; full MH pH 7.4): 32 µg/mL (≈ 13.4 µM)
MIC P. aeruginosa, 12.5% MHB (P. aeruginosa PAO1; P. aeruginosa PAO1, 12.5% Müller–Hinton medium, 16–20 h at 37 °C): 4 µg/mL (≈ 1.67 µM)
MIC P. aeruginosa, Full MHB (P. aeruginosa PAO1; P. aeruginosa PAO1, full Müller–Hinton medium, 16–20 h at 37 °C): 64 µg/mL (≈ 26.8 µM)
MIC P. aeruginosa PAO1 (P. aeruginosa PAO1; 12.5% MH pH 7.4): 4 µg/mL (≈ 1.67 µM)
MIC P. aeruginosa PAO1 (P. aeruginosa PAO1; full MH pH 7.4): 64 µg/mL (≈ 26.8 µM)
MIC K. pneumoniae, 12.5% MHB (K. pneumoniae NCTC 418; K. pneumoniae NCTC 418, 12.5% Müller–Hinton medium, 16–20 h at 37 °C): 2 µg/mL (≈ 0.837 µM)
MIC K. pneumoniae, Full MHB (K. pneumoniae NCTC 418; K. pneumoniae NCTC 418, full Müller–Hinton medium, 16–20 h at 37 °C): 4 µg/mL (≈ 1.67 µM)
MIC K. pneumoniae NCTC418 (K. pneumoniae NCTC 418; 12.5% MH pH 7.4): 2 µg/mL (≈ 0.837 µM)
MIC K. pneumoniae NCTC418 (K. pneumoniae NCTC 418; full MH pH 7.4): 4 µg/mL (≈ 1.67 µM)
MIC S. aureus, 12.5% MHB (S. aureus COL (MRSA); S. aureus COL (MRSA), 12.5% Müller–Hinton medium, 16–20 h at 37 °C): 32 µg/mL (≈ 13.4 µM)
MIC S. aureus, Full MHB (S. aureus COL (MRSA); S. aureus COL (MRSA), full Müller–Hinton medium, 16–20 h at 37 °C): > 64 µg/mL
MIC S. aureus COL (MRSA) (S. aureus COL (MRSA); 12.5% MH pH 7.4): 32 µg/mL (≈ 13.4 µM)
MIC S. aureus COL (MRSA) (S. aureus COL (MRSA); full MH pH 7.4): >64 µg/mL
MIC K. pneumoniae OXA-48, 12.5% MHB (K. pneumoniae OXA-48; carbapenem-resistant, 12.5% MHB pH 7.4, 16–20 h at 37 °C): 1 µg/mL (≈ 0.418 µM)
MIC K. pneumoniae OXA-48, full MHB (K. pneumoniae OXA-48; carbapenem-resistant, full MHB pH 7.4, 16–20 h at 37 °C): 8 µg/mL (≈ 3.35 µM)
MIC K. pneumoniae OXA-48 (K. pneumoniae OXA-48; 12.5% MH pH 7.4): 1 µg/mL (≈ 0.418 µM)
MIC K. pneumoniae OXA-48 (K. pneumoniae OXA-48; full MH pH 7.4): 8 µg/mL (≈ 3.35 µM)
MIC P. aeruginosa ZEM-1A, 12.5% MHB (P. aeruginosa ZEM-1A; clinical isolate, 12.5% MHB pH 7.4, 16–20 h at 37 °C, cells marked c: single measurement (in duplicates)): 8 µg/mL (≈ 3.35 µM)
MIC P. aeruginosa ZEM-1A, full MHB (P. aeruginosa ZEM-1A; clinical isolate, full MHB pH 7.4, 16–20 h at 37 °C, cells marked c: single measurement (in duplicates)): 32 µg/mL (≈ 13.4 µM)
MIC P. aeruginosa ZEM-1A (P. aeruginosa ZEM-1A; 12.5% MH pH 7.4): 8 µg/mL (≈ 3.35 µM)
MIC P. aeruginosa ZEM-1A (P. aeruginosa ZEM-1A; full MH pH 7.4): 32 µg/mL (≈ 13.4 µM)
MIC P. aeruginosa ZEM9A, 12.5% MHB (P. aeruginosa ZEM9A; clinical isolate, 12.5% MHB pH 7.4, 16–20 h at 37 °C): 8 µg/mL (≈ 3.35 µM)
MIC P. aeruginosa ZEM9A, full MHB (P. aeruginosa ZEM9A; clinical isolate, full MHB pH 7.4, 16–20 h at 37 °C): > 64 µg/mL
MIC P. aeruginosa ZEM9A (P. aeruginosa ZEM9A; 12.5% MH pH 7.4): 8 µg/mL (≈ 3.35 µM)
MIC P. aeruginosa ZEM9A (P. aeruginosa ZEM9A; full MH pH 7.4): >64 µg/mL
MIC P. aeruginosa PA14, 12.5% MHB (P. aeruginosa PA14; 12.5% MHB pH 7.4, 16–20 h at 37 °C, two different duplicate MIC determinations): 16 µg/mL (≈ 6.69 µM)
MIC P. aeruginosa PA14, full MHB (P. aeruginosa PA14; full MHB pH 7.4, 16–20 h at 37 °C, two different duplicate MIC determinations): > 32 µg/mL
MIC P. aeruginosa PA14 (P. aeruginosa PA14; 12.5% MH pH 7.4): 16 µg/mL (≈ 6.69 µM)
MIC P. aeruginosa PA14 (P. aeruginosa PA14; full MH pH 7.4): >32 µg/mL
MIC P. aeruginosa PA14 2P4 (pmrB), 12.5% MHB [1, 4]: 4 to 8 µg/mL
MIC P. aeruginosa PA14 2P4 ([1]; supplement CSV, 12.5% MH pH 7.4): 4 to 8 µg/mL
MIC E. cloacae, 12.5% MHB (E. cloacae; 12.5% MHB pH 7.4, 16–20 h at 37 °C): 1 µg/mL (≈ 0.418 µM)
MIC E. cloacae, full MHB (E. cloacae; full MHB pH 7.4, 16–20 h at 37 °C): 2 µg/mL (≈ 0.837 µM)
MIC E. cloacae (E. cloacae; 12.5% MH pH 7.4): 1 µg/mL (≈ 0.418 µM)
MIC E. cloacae (E. cloacae; full MH pH 7.4): 2 µg/mL (≈ 0.837 µM)
MIC P. aeruginosa PA14 4.18 (pmrB), 12.5% MHB [2, 4]: 16 µg/mL (≈ 6.69 µM)
MIC P. aeruginosa PA14 4.18 (pmrB), full MHB [2, 5]: > 32 µg/mL
MIC P. aeruginosa PA14 4.18 ([2]; 12.5% MH pH 7.4): 16 µg/mL (≈ 6.69 µM)
MIC P. aeruginosa PA14 4.18 ([2]; full MH pH 7.4): >32 µg/mL
MIC P. aeruginosa PA14 4.13 (phoQ), 12.5% MHB [3, 4]: 16 µg/mL (≈ 6.69 µM)
MIC P. aeruginosa PA14 4.13 (phoQ), full MHB [3, 5]: > 32 µg/mL
MIC P. aeruginosa PA14 4.13 ([3]; 12.5% MH pH 7.4): 16 µg/mL (≈ 6.69 µM)
MIC P. aeruginosa PA14 4.13 ([3]; full MH pH 7.4): >32 µg/mL
Haemolysis on hRBC, MHC (human red blood cells; 2.5% human red blood cells (final) in 10 mM phosphate, 150 mM NaCl, pH 7.4, 25 °C, 4 h, visual inspection): >1000 µg/mL
MHC human red blood cells (human red blood cells; supplement CSV): >1000 µg/mL
